Experimental data as given in publication PMC12217462 (Antimicrobial Agents and Chemotherapy, 2025).
Values joined by “and” are separate entries in the source; they are usually repeats but may differ in a detail not shown here. Equal entries are not always repeated. Where two headings read alike, the source gives them in different places.

What was measured:
Babesia duncani [1] = assay: Propidium iodide-based in vitro dose-response assay, B. duncani-infected red blood cells, 384-well plates; format: cell-based; settings: for EC90: read-out: EC90 (95% CI)
Protocol: Frozen stocks of B. duncani were provided by the Ben Mamoun lab at Yale University. Culture maintenance was undertaken as described by Singh et al^18 with the following adaptations: Media, completed DMEM/F12 (cDMEM; 20% heat-inactivated fetal bovine serum (Sigma-Aldrich catalogue #12,306 C-500ML), 1 x HT media supplement (Sigma-Aldrich catalogue # H0137-10VL), 1 x L-glutamine (Gibco, catalogue # 25030–081), 1 x antibiotic-antimycotic (Gibco catalogue #15240–062), and 1 x gentamicin (Gibco catalogue #15710–072)), was changed every other day and cultures were kept in a modular incubator gassed with 2% O2, 5% CO2, 93% N2 at 37°C. Passage occurred once a week into fresh blood at 1%–2% parasitemia, 5% hematocrit, and fresh A + blood was obtained once a week from the University of Vermont Medical Center Blood Bank. Four days before the start of drug assay testing, a 10 mL, 5% hematocrit culture was infected to 2% parasitemia with Babesia duncani. One day before the start, the media was changed, and parasitemia was assessed by light microscopy examination of Giemsa-stained thin blood smears with a minimum of 500 red blood cells counted.
Fresh A + blood was washed three times, and a stock 10% hematocrit (HCT) solution of uninfected red cells in completed F12/DMEM media (cDMEM) was created. In a 96-well plate, a pellet from a vigorously growing (≥20% parasitemia) culture was used to create a 10% hematocrit starting well that was then serially diluted five times with the stock 10% hematocrit solution. 25 µL of each serial dilution was transferred to a white, clear-bottom 384-well plate (Falcon, catalog #353963) in triplicate before 25 µL of cDMEM was added to each well, followed by 25 µL of 0.6% Triton-X, 22.5 µM PI in phosphate-buffered solution. The 384-well plate was then shaken for 30 seconds, incubated at 37°C for 1 hour (in the dark), then moved to room temperature in the dark. After 24 hours, the plate was read using a Synergy H1 (BioTek, Winooski, VT) with excitation = 535 nm, emission = 615 nm, sensitivity = 150, and readings taken from the bottom of the wells. Blood smears were made from select undiluted starting wells and stained with Giemsa, and parasitemia was calculated manually from a minimum of 1,000 counted red blood cells. The experiment was repeated twice.
(§1) Prior to the removal of the culture(s) from the modular incubator, fresh A + blood was washed three times with PSG +and compounds (in DMSO stocks) to be tested were prepared in a 96-well plate by serial dilution in cDMEM. Once prepared, the culture(s) were removed from the modular incubator, collected, and washed once with 7 mL of cDMEM. A 10% hematocrit, 5% parasitemia stock in cDMEM was made, and 25 µL aliquoted into a 384-well plate with constant agitation, followed by 25 µL of compound dilution (quadruplicates). The positive growth control was given 25 µL of 0.5% dimethyl sulfoxide (DMSO) in cDMEM (final 0.25% DMSO), and the negative growth control was 25 µL of 50 µM WR99210 (0.5% DMSO) (final 25 µM WR99210, 0.25% DMSO). Plates were incubated as previously described, smears of the positive growth control were made, and the plates were read as previously described. Smears were stained by Giemsa, and a minimum of 1,000 RBCs were counted to determine parasitemia. Dose-response assays were repeated twice.
Pilot dose-response experiments were performed using WR99210 (a DHFR inhibitor with known effect on Babesia duncani), DMSO vehicle, and standard of care drugs atovaquone, clindamycin, quinine, and azithromycin ([20]).
The positive growth control was treated with 25 µL of 0.5% dimethyl sulfoxide (DMSO) in cDMEM (final 0.25% DMSO), and the negative growth control with 25 µL of 50 µM WR99210 (0.5% DMSO) (final 25 µM WR99210, 0.25% DMSO). The plate was incubated for 48 hours and then the plate was stained and read as previously described.

Babesia duncani [2] = assay: Bug Box single-concentration screen, PI assay in 384-well plates; format: cell-based; settings: read-out: Inhibition in Bug Box screen (hit definition)
Protocol: as §1
The Bug Box is a collection of 40 compounds with known antimicrobial and/or bioactivity, which was provided by the Structural Genomics Consortium (SGC)-Toronto. The full list of compounds is available in the supplement. They were obtained in 10 mM aliquots and screened in 384-well plates at 1 µM and 5 µM dilutions with four technical replicates per dilution. Hits were defined as those compounds with at least 80% inhibition. Hits were validated by dose-response curves using commercially obtained compounds with verified purity. The only exception to this was in the verification of compound M7, which is a proprietary compound that could be obtained only from SGC-Toronto. Dose-response curves were created from two independent experiments, each with nine dilutions of the drug.

Babesia duncani [3] = settings: cited from earlier work
HCT8 cells = assay: Cytotoxicity on confluent monolayer HCT8 cells (Promega CellTiter Aqueous One MTS assay); format: cell-based, human; settings: 48 hours, highest final concentration 100 µM, two replicate experiments
Protocol: Human HCT8 cells were grown in tissue culture flasks until a confluent monolayer was achieved. […] Cells were incubated with the drug for 48 hours. Promega CellTiter Aqueous One Solution Cell Proliferation Assay (MTS) (PRG3580) was commercially obtained and used to ascertain cell viability, with […] measured using a Biotek microplate reader. Cells incubated in 0.5% DMSO served as a positive growth control and comparator arm.

B. divergens = system: B. divergens; design: method as in earlier work; settings: ref 35 (Vanheer et al.); cited from earlier work
[4] = cited from earlier work
[5] = design: method as in PMID 22553374; settings: oral, 28-day, once-daily dosing study in humans; cited from earlier work
[6] = Cytotoxicity on confluent monolayer HCT8 cells (Promega CellTiter Aqueous One MTS assay); format: cell-based; settings: human HCT8 cells
[7] = system: normal cell lines (human mammary and renal epithelial cells, among others); design: method as in PMID 19344997; settings: cited from earlier work
solid tumor cells = system: solid tumor cells; design: method as in PMID 19344997; settings: cited from earlier work
normal cells = system: normal cells; design: method as in PMID 19344997; settings: cited from earlier work
malignant cells = system: malignant cells; design: method as in PMID 19344997; settings: malignant cells treated; cited from earlier work
P. falciparum = system: P. falciparum; design: method as in PMID 26199860, PMID 33541085; settings: depending on the strain tested; cited from earlier work
liquid tumor cell lines = system: liquid tumor cell lines; design: method as in PMID 19344997; settings: cited from earlier work
[8] = B. duncani in vitro, 48 hours of incubation, PI staining, read-out: EC50
[9] = Babesia duncani, Erythrocyte, 48 h, B. duncani in vitro, 48 hours of incubation, PI staining, read-out: EC50
[10] = Babesia duncani, Erythrocyte, 48 h, given in Fig 2 and Fig 3B, nine-point serial dilution, 48 hours, experiments repeated twice, read-out: EC50 (95% CI)
[11] = Babesia duncani, Erythrocyte, given in Fig 2 and Fig 3B, nine-point serial dilution, 48 hours, experiments repeated twice
[12] = screened at 5 µM, four technical replicates
[13] = Babesia duncani, Erythrocyte, Table 1, B. duncani, two replicate 9-point dilution experiments, combined data, read-out: EC50
[14] = Babesia duncani, Erythrocyte, B. duncani, read-out: In vitro IC90
[15] = Babesia duncani, Erythrocyte, conversion of B. duncani IC90, read-out: Free plasma concentration equivalent to IC90
[16] = 12 mg given orally (PO) thrice weekly

SMILES: O=C1C(O)=C([C@H]2CC[C@H](c3ccc(Cl)cc3)CC2)C(=O)c2ccccc21 [Atovaquone]
- EC50 (Babesia duncani [1]; [8]): 517 nM
- EC50 (Babesia duncani [1]; [9]): 518 nM
- EC50 (Babesia duncani [1]; [10]): 520 nM
- EC90 (Babesia duncani [1]; [11]): 780 nM
- inhibition at 5 µM (Babesia duncani [2]; [12]): > 80%
- EC50 (Babesia duncani [3]; Babesia duncani, SYBR green assay, ref 9 (Abraham et al.)): 500 nM
- EC50 (Babesia duncani [3]; later Babesia duncani testing, same lab group): 72 nM

SMILES: CC[C@H]1OC(=O)[C@H](C)[C@@H](O[C@H]2C[C@@](C)(OC)[C@@H](O)[C@H](C)O2)[C@H](C)[C@@H](O[C@@H]2O[C@H](C)C[C@H](N(C)C)[C@H]2O)[C@](C)(O)C[C@@H](C)CN(C)[C@H](C)[C@@H](O)[C@]1(C)O [Azithromycin]
- EC50 (Babesia duncani [1]; [9]): 12400 nM
- EC50 (Babesia duncani [1]; [10]): 12000 nM
- EC90 (Babesia duncani [1]; [11]): 28000 nM

SMILES: O=C(/C=C/c1cccc(S(=O)(=O)Nc2ccccc2)c1)NO [Belinostat]
- TC50 HCT8 (HCT8 cells): 90000 nM
- EC50 (Babesia duncani [1]; [13]): 150 nM

SMILES: CCC[C@@H]1C[C@@H](C(=O)N[C@@H]([C@H]2O[C@H](SC)[C@H](O)[C@@H](O)[C@H]2O)[C@H](C)Cl)N(C)C1 [Clindamycin]
- EC50 (Babesia duncani [1]; [10]): > 50000 nM
- Inhibition of B. duncani growth (in words) (Babesia duncani [1]; dose-response assay, 48 hours): appeared not to inhibit at all

SMILES: O=C(/C=C/c1ccc(CN(CCO)CCc2c[nH]c3ccccc23)cc1)NO [Dacinostat]
- TC50 HCT8 (HCT8 cells): 150000 nM
- EC50 (Babesia duncani [1]; [13]): 23 nM
- EC50 (B. divergens): 112 nM

SMILES: Nc1ccccc1NC(=O)c1ccc(CNC(=O)OCc2cccnc2)cc1 [Entinostat]
- TC50 HCT8 (HCT8 cells): 110000 nM
- EC50 (Babesia duncani [1]; [13]): 23000 nM

SMILES: CCN(CC)Cc1ccc2cc(COC(=O)Nc3ccc(C(=O)NO)cc3)ccc2c1 [Givinostat]
- TC50 HCT8 (HCT8 cells): 43000 nM
- EC50 (Babesia duncani [1]; [13]): 220 nM

SMILES: Nc1ccccc1NC(=O)c1ccc(CNc2nccc(-c3cccnc3)n2)cc1 [Mocetinostat]
- TC50 HCT8 (HCT8 cells): 56000 nM
- EC50 (Babesia duncani [1]; [13]): 2500 nM

SMILES: O=C(NO)c1cnc(N2C[C@@H]3[C@H](C2)[C@H]3NCc2ccc3cc(F)ccc3n2)nc1 [Nanatinostat]
- Cmax ([4]; single 20 mg oral dose): 186 ng/mL
- TC50 HCT8 (HCT8 cells): 44000 nM
- Protocol defined maximum tolerated dose [5]: 80 mg
- EC50 (Babesia duncani [1]; [8]): 23.8 nM
- EC50 (Babesia duncani [1]; [9]): 23 nM
- EC50 (Babesia duncani [1]; [13]): 24 nM
- IC90 (Babesia duncani [1]; [14]): 64 nM
- IC90 (Babesia duncani [1]; [15]): ~0.025 µg/mL
- EC50 at 48 h [6]: 56200 nM

SMILES: Cc1[nH]c2ccccc2c1CCNCc1ccc(/C=C/C(=O)NO)cc1 [Panobinostat]
- TC50 HCT8 (HCT8 cells): 130000 nM
- LD90 [7]: > 5 µM
- LD90 (solid tumor cells): less than 500 nM
- EC50 (Babesia duncani [1]; [9]): 8 nM
- EC50 (Babesia duncani [1]; [13]): 8.4 nM
- EC90 (Babesia duncani [1]; [11]): 37 nM
- Caspase expression compared with control (normal cells): no increase
- inhibition at 5 µM (Babesia duncani [2]): > 80%
- EC50 (B. divergens): 27.2 nM
- Increase in apoptotic signaling (malignant cells): 10- to 11 fold
- EC50 (P. falciparum): 10 to 30 nM
- LD90 (liquid tumor cell lines): less than 100 nM

SMILES: CCCCc1nc2cc(/C=C/C(=O)NO)ccc2n1CCN(CC)CC [Pracinostat]
- TC50 HCT8 (HCT8 cells): 450000 nM
- EC50 (Babesia duncani [1]; [13]): 160 nM

SMILES: C=C[C@H]1C[N@@]2CC[C@H]1C[C@H]2[C@H](O)c1ccnc2ccc(OC)cc12 [Quinine]
- EC50 (Babesia duncani [1]; [9]): 17500 nM
- EC50 (Babesia duncani [1]; [10]): 18000 nM
- EC90 (Babesia duncani [1]; [11]): 33000 nM

SMILES: Cn1cc(CNCC2CCN(c3ncc(C(=O)NO)cn3)CC2)c2ccccc21 [Quisinostat]
- Area under the curve (AUC) [4, 16]: 18 ng*H/mL
- Peak plasma concentration (Cmax) [4, 16]: 1.9 ng/mL
- TC50 HCT8 (HCT8 cells): 170000 nM
- EC50 (Babesia duncani [1]; [13]): 4.5 nM
- IC90 (Babesia duncani [1]; [14]): 10 nM
- IC90 (Babesia duncani [1]; [15]): ~0.004 µg/mL
- EC50 (B. divergens): 4.6 nM
- EC50 (P. falciparum): 5 to 7 nM

SMILES: COc1cc(Cc2cnc(N)nc2N)cc(OC)c1OC [Trimethoprim]
- EC50 (Babesia duncani [1]; [9]): 2700 nM
- EC90 (Babesia duncani [1]; [11]): 4500 nM
- inhibition at 5 µM (Babesia duncani [2]; [12]): > 80%

SMILES: O=C(CCCCCCC(=O)Nc1ccccc1)NO [Vorinostat]
- TC50 HCT8 (µM) (HCT8 cells): No toxicity

SMILES: CC1(C)N=C(N)N=C(N)N1OCCCOc1cc(Cl)c(Cl)cc1Cl [WR99210]
- EC50 (Babesia duncani [1]; [8]): 8.3 nM and ~8.3 nM
- EC90 (Babesia duncani [1]; given in Fig 2 and Fig 3B, nine-point serial dilution, 48 hours, experiments repeated twice): 14 nM

SMILES: c1ccc2c(c1)[I+]c1ccccc1-2 [diphenylene iodonium chloride, Diphenyleneiodonium chloride]
- EC50 (Babesia duncani [1]; [9]): 550 nM
- EC90 (Babesia duncani [1]; [11]): 1600 nM
- inhibition at 5 µM (Babesia duncani [2]; [12]): > 80%
